Test results taken from US10646484B2, “Methods to treat opioid use disorder” (Indivior UK Limited, priority 2017, dated 2020).

Each compound was assayed on opioid-dependent subjects (assay: Concentration-QT analysis pooled across clinical studies). Settings: concentration-QT model covariate.
Protocol: A concentration QT analysis was performed for the clinical studies conducted with Formulation D. Matching buprenorphine and norbuprenorphine plasma concentrations and 12-lead electrocardiograms (ECGs) were pooled across clinical studies conducted with Formulation D in opioid-dependent subjects. Concentration-QT models were developed to describe the effects of buprenorphine and norbuprenorphine on corrected QT (QTc) interval, after accounting for the effect of relevant concomitant medications and illicit drug use on heart rate and/or QT in opioid-dependent subjects. Data from the following studies were included in the analysis:
Stable doses of SUBUTEX® tablets ranged between 8 and 24 mg depending on the dose cohort.
Twenty subjects received SUBOXONE® film alone.
Subjects were inducted using SUBOXONE® film for 3 days, followed by 4- to 11-day SUBOXONE® film dose adjustment at doses ranging from 8 to 24 mg QD. SUBOXONE® film was tapered in subjects after amendment of study protocol (Day 1: 6 mg, Days 2 and 3: 4 mg, Days 4 and 5: 2 mg).
The following covariates were evaluated on alpha given their potential to affect heart rate: withdrawal symptoms (as measured by Clinical Opiate Withdrawal Scale (COWS)), clonidine and methocarbamol (used to treat withdrawal symptoms), cocaine, phencyclidine, cannabinoids, barbiturates, and methamphetamines (illicit drugs), amphetamines (taken for therapeutic, e.g., attention-deficit/hyperactivity disorder or illicit use), as well as albuterol (known to increase heart rate).
The following covariates were evaluated on QTcAbs: sex, age, opioids known to have an effect on QTc (methadone, oxycodone), opioids that may have an effect on QTc (hydrocodone, morphine, hydromorphone, oxymorphone, heroin, codeine), or opioids (as a general class, with exact type not recorded in CRF), benzodiazepines, barbiturates, triplicate vs single ECG readings, central vs non-centrally read ECGs, and Holter vs non-Holter. Covariates were selected using individual steps of backward elimination. The concentration-related slope was added and the model was refined. Bootstrap and visual predictive checks were conducted to evaluate model performance.
In addition, the bias-corrected two-sided 90% confidence interval of the Delta QTc distribution was determined using the boot package in R (boot( ) function), where an additional nonparametric bootstrap was performed. If the upper limit of the 90% confidence interval was <10 msec, then an effect of Formulation D on QTc was to be ruled out.

Row | SMILES | change in QTc associated with concomitant or illicit drug (covariate on QTc)
1 | COC(=O)[C@H]1[C@@H](OC(=O)c2ccccc2)C[C@@H]2CC[C@H]1N2C [cocaine] | +1.7 msec
2 | COc1ccc2c3c1O[C@H]1[C@@H](O)C=C[C@H]4[C@@H](C2)N(C)CC[C@@]341 [codeine] | +1.3 msec
3 | CCC(=O)C(CC(C)N(C)C)(c1ccccc1)c1ccccc1 (stereo not drawn) [methadone] | +6.1 msec
4 | COc1ccc2c3c1O[C@H]1C(=O)CC[C@@]4(O)[C@@H](C2)N(C)CC[C@]314 [oxycodone] | -1.5 ms
5 | c1ccc(C2(N3CCCCC3)CCCCC2)cc1 [phencyclidine] | +3.4 msec

Same assay, conditions: human, in vivo

Row | SMILES | change in QTc associated with concomitant or illicit drug (covariate on QTc)
6 | OCCOCCN1CCN(C(c2ccccc2)c2ccc(Cl)cc2)CC1 (stereo not drawn) [hydroxyzine] | +1.7 msec
